Experimental data published in ChEMBL document CHEMBL3108755, “Dermacozines H-J isolated from a deep-sea strain of Dermacoccus abyssi from Mariana Trench sediments” (J Nat Prod, 2014).

What follows are compounds tested on Radical scavenging activity (assay: Antioxidant activity assessed as DPPH radical scavenging activity).
Type: functional

IC50 [µM] | Compound
19.6 | CC(=O)NC(CSc1ccc(C(N)=O)c2c1Nc1c(C(N)=O)cc(C(=O)c3ccccc3)cc1N2C)C(=O)O (stereo not given)
8.4 | CN1c2cc(C(=O)c3ccccc3)cc(C(=O)O)c2Nc2cccc(C(N)=O)c21
18.8 | CN1c2cc(C=O)cc(C(=O)O)c2Nc2cccc(C(N)=O)c21
34.6 | CN1c2cccc(C(N)=O)c2Nc2c(C(=O)c3ccccc3)ccc(C(N)=O)c21
12.1 | O=C1O[C@H]([C@@H](O)CO)C(O)=C1O [ASCORBIC ACID]
